The nature of one series: in vivo. The settings on record: female, Sprague-Dawley, rat, iv, 8.8 mg; for dose excreted: rats, 8.8 mg i.v.
The subject of series [1] is antigen specific antibody recall response. Nature of the series: Cynomolgus monkeys immunized with scFv antigen. It is filed as in vivo. The following applies: single dose 50 mg/kg i.v. The method, then:
Cynomolgus monkeys were immunized with antigen that is a single chain Fv (scFv) protein. Each animal previously received 3 i.v. injections of the antigen and all developed high serum titers. Five animals were randomly divided into 2 groups. Two animals served as PBS treated controls and 3 were treated i.v. with 50 mg/kg CRD-Leu4Ile11Cys13 peptide 3(3-12)[MCP-1]. Thirty minutes following CRD-Leu4Ile11Cys13 peptide 3(3-12)[MCP-1] treatment all animals were challenged i.v. with 3.5 mg/kg antigen. In addition, animals were challenged intradermal with each of the following in a volume of 50 μl:PBS; 50 μg antigen; 5 μg antigen; 0.5 μg antigen; 500 ng MCP-1; or 50 ng LPS. Serum was collected at 10 minutes, 30 minutes, 60 minutes, 4 hours, and 24 hours. Animals were sacrificed 24 hours after CRD-Leu4Ile11Cys13 peptide 3(3-12)[MCP-1] injection and complete necropsy performed and tissues fixed for histopathology. Fixed and frozen skin samples were harvested for histopathology and immunohistochemistry. […] Blood was also analyzed pre- and post-CRD-Leu4Ile11Cys13 peptide 3(3-12)[MCP-1] injection for hematology parameters and serum chemistry. Serum levels were evaluated by an LC-MS method (limit of quantitation=1 μg/ml) pre-treatment and then at 10 minutes, 30 minutes, 60 minutes, 4 hours and 20-24 hours after injection. […]

Series [2] in a line: Plasma concentration after a single intraperitoneal dose. It is filed as in vivo. The settings on record: ip, 24 hours after a single intraperitoneal dose of 1 mg in 250 μL saline. As to the method:
For example, to prepare a peptide 3 derivative, peptide 3(3-12)[MCP-1] was modified according to Jameson et al. (Nature, 368, 744 (1994)), which yielded CRD-Cys13Leu4Ile11peptide 3(3-12)[MCP-1] (FIG. 3). CRD-Cys13Leu4Ile11peptide 3(3-12)[MCP-1], which had very similar properties to peptide 3(1-12)[MCP-1] […] CRD-Cys13Leu4Ile11peptide 3(3-12)[MCP-1] was also resistant to hydrolysis in vivo and allowed therapeutically useful plasma concentrations to be achieved (>10 μM 24 hours after a single intraperitoneal dose of 1 mg of CRD-Cys13Leu4Ile11peptide 3(3-12)[MCP-1] in 250 μL saline).

Another series concerns HIV (IIIb). Nature of the series: HIV infectivity of Jurkat T-cells, p24gag immunofluorescence. The following applies: 100 μM peptide (SDF1α 100 ng/ml), about 48 hours after infection. Type of series: cell-based. The method, then:
(a) HIV (IIIb) replication in cultures of Jurkat T-cells was estimated by measuring the supernatant reverse transcriptase activity two weeks after infection. Peptide 2 and peptide 3 were at 100 μM final concentration and SDF-1α was added at 100 ng/ml final concentration 1 hour prior to exposure to virus. Values are mean±SEM from 12 wells, expressed as the percentage of the reverse transcriptase activity in the supernatant from the control wells. The experiment shown is typical of six separate experiments. (b) HIV (IIIb) infectivity of Jurkat T-cells was estimated by staining cells treated identically to those in (a) for p24^gag expression. Values are mean±S.D. percentage of cells stained for p24gag averaged from 12 fields of view from each of two separate wells. (c) HIV (MN) infectivity of THP-1 cells measured as in (b). […] Both fields of view contain 40-50 cells (assessed by Hoeschst 33345 staining viewed under UV illumination conditions).
Jurkat cells following HIV infection were attached to 8-well chamber slides (Becton-Dickinson) by spinning the slides using a plate rotor in a Labofuge centrifuge (Haeraeus) at 3,000×g for 5 minutes. […] A threshold was then applied to each image which was the lowest threshold that detected <1% of the pixels of an image of uninfected cells stained under identical conditions. The number of objects exceeding this threshold in each field of view were counted. […]

A further series relates to gp120. The settings on record: ns = not significantly different from control; >100 = ED50 not determined.

Positions of bridges follow the written chain, without caps; N, C: chain ends. Non-standard residues stand in square brackets, D forms with d. Residues, ends and D or L forms follow the SMILES beside them. No end group written: not given here.

`CC[C@@H](C)[C@H]1NC(=O)[C@@H](CCC(N)=O)NC(=O)[C@H](N)CSSC[C@H](C(N)=O)NC(=O)[C@@H](CC(C)C)NC(=O)[C@@H](CC(=O)O)NC(=O)[C@H]2CCCN2C(=O)[C@@H](CCCCN)NC(=O)[C@@H](CCC(N)=O)NC(=O)[C@@H](CCCCN)NC(=O)[C@@H](Cc2c[nH]c3ccccc23)NC1=O` (H-[dC][dQ][dI][dW][dK][dQ][dK][dP][dD][dL][dC]-NH2; disulfide 1-11; N-terminus assumed) had a half-life in “in vivo” of around 10 min. For the same compound, the results for the dose excreted in the series “in vivo” (administered dose recovered in urine over 24 hours) and in the series “in vivo” (dose excreted in urine over the first two hours) were around 70% and above 55%, respectively. Moreover, in series [1], the “antigen specific antibody response in splenocyte, lymph node and PBL recall responses” value is “reduced antigen specific antibody response”. The compound also had a level at time molar at 24 h in series [2] above 10 µM.
EICADPKQKWVQ [peptide 3(1-12)[MCP-1]]: in the series on HIV (IIIb), the “inhibition of viral infectivity, p24gag staining, Jurkat T-cells” value was “ineffective”.
On to “SYRRITSSKCPKEAV [peptide 2(1-15)[MCP-1]]”, for which the “gp120 ED-50” value with gp120 was 0.4 µM.

Values taken from patent publication US7989466B2, “Methods to inhibit or augment an inflammatory response” (Cambridge Enterprise Limited, priority 1999, dated 2011).
